{
  "source": "paper PMC7461557",
  "about": "“Multicopy Suppressor Analysis of Strains Lacking Cytoplasmic Peptidyl-Prolyl cis/trans Isomerases Identifies Three New PPIase Activities in Escherichia coli That Includes the DksA Transcription Factor” (International Journal of Molecular Sciences, 2020)",
  "key": {"MetL": {"molecular_target": "T1, MetL (Escherichia coli, UniProt P00562)", "T1 construct": "ASKA clone in pCA24N, Ni-NTA purified from E. coli lacking six PPIs (SR18292)", "T1 sequence (P00562 whole entry)": "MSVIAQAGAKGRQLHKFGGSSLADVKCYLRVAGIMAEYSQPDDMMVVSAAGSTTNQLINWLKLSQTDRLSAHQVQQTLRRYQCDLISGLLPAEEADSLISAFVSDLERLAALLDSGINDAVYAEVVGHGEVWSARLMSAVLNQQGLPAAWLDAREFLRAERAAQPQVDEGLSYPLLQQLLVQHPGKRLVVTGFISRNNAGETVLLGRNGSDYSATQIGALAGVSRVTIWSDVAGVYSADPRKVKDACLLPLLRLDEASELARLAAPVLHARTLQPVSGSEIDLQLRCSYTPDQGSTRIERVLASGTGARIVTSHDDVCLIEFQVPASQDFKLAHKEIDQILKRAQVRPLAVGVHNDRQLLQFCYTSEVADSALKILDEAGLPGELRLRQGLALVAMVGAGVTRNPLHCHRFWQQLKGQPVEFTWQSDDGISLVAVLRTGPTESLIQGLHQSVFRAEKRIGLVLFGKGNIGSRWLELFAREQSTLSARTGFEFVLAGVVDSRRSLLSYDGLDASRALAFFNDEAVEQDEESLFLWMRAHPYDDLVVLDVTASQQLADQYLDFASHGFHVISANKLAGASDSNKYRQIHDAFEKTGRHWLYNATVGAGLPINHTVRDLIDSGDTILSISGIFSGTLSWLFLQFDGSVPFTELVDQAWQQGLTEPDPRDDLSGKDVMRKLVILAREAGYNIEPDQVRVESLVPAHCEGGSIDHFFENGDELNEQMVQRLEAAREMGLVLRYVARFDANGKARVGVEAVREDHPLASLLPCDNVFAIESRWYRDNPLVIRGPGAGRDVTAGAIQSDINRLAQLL", "assay": "chymotrypsin-coupled PPIase assay, absorbance […] nm", "assay_type": "biochemical", "details": "inhibitor; substrate N-Suc-Ala-Ala-cis-Pro-Phe-p-nitroanilide; two-fold molar excess of FK506, 5 min preincubation; 35 mM HEPES pH 8.0, 10 °C"}, "Cmk": {"molecular_target": "T2, Cmk (Escherichia coli, UniProt P0A6I0)", "T2 construct": "ASKA clone in pCA24N, Ni-NTA purified from E. coli lacking six PPIs (SR18292)", "T2 sequence (P0A6I0 1-227)": "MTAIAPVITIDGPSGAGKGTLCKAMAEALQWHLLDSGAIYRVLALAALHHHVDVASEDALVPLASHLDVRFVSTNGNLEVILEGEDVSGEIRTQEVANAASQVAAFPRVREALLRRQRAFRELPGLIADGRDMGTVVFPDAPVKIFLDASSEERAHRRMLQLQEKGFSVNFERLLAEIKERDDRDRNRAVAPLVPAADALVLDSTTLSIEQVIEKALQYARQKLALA", "assay": "chymotrypsin-coupled PPIase assay, absorbance […] nm", "assay_type": "biochemical", "details": "inhibitor; substrate N-Suc-Ala-Ala-cis-Pro-Phe-p-nitroanilide; two-fold molar excess of FK506, 5 min preincubation; 35 mM HEPES pH 8.0, 10 °C"}},
  "data": [
    {"smiles": "C=CC[C@@H]1/C=C(\\C)C[C@H](C)C[C@H](OC)[C@H]2O[C@@](O)(C(=O)C(=O)N3CCCC[C@H]3C(=O)O[C@H](/C(C)=C/[C@@H]3CC[C@@H](O)[C@H](OC)C3)[C@H](C)[C@@H](O)CC1=O)[C@H](C)C[C@@H]2OC", "note": "[FK506]", "values": [
      {"measurement": "chymotrypsin-coupled PPIase assay, absorbance 390 nm", "setting": "MetL", "result": "inhibition of the PPIase activity of MetL by the two-fold molar excess of FK506"},
      {"measurement": "chymotrypsin-coupled PPIase assay, absorbance 390 nm", "setting": "Cmk", "result": "inhibition of the PPIase activity of Cmk by the two-fold molar excess of FK506"}
    ]}
  ]
}
